Measured values as given in patent US20250073235A1, “INHIBITION OF MAST CELL TUMOR NECROSIS FACTOR FOR THERAPEUTIC USE” (The University of Southern Mississippi, priority 2023, published 2025).
“Also recorded” adds a separate entry of the source.

B1: sTNFR1: soluble TNF receptor 1 (Genscript), sequesters secreted TNF (protein, UniProt P19438 30-211, looked up)
extracellular domain: LVPHLGDREKRDSVCPQGKYIHPQNNSICCTKCHKGTYLYNDCPGPGQDTDCRECESGSFTASENHLRHCLSCSKCRKEMGQVEISSCTVDRDTVCGCRKNQYRHYWSENLFQCFNCSLCLNGTVHLSCQEKQNTVCTCHAGFFLRENECVSCSNCKKSLECTKLCLPQIENVKGTEDSGTT
modifications: extracellular domain

Key:
[1] = system: RBL-2H3 cells; experiment: total TNF protein level (ELISA), IgE/TNP-BSA activated mast cells; assay type: cell-based, rat; details: for total TNF level, normalized against DMSO: FIG. 19; for overall level of TNF (total TNF protein): 1 hour
Procedure: (§1) Sub-confluent RBL-2H3 cells (85%) grown on a 6-well plate were sensitized with 0.5 μg/ml anti-TNP IgE (BD Biosciences) and activated by 25 ng/ml TNP^(26)-BSA (Santa-Cruz) in RPMI 1640 (Corning) containing 0.1% BSA as described. The supernatant (around 1 ml) was collected from resting (no exposure to IgE) and activated (IgE and TNP-BSA) cells respectively and centrifuged at 500 g for 5 min at 4° C. to clear any cell debris. In the meantime, the cells attached to the bottom of the 6-well plates were lysed in 1 ml of cell culture medium, RPMI 1640 containing 0.1% BSA and 0.5% Triton X-100 for 5 min at RT. The lysate was centrifuged at 15,000 g for 5 min at 4° C. to clear any Triton-insoluble biomass. The cleared supernatant or lysate was separated into 3 aliquots: 800 μl were lyophilized for TNF assay; 50 μl were stored at −20° C. for serotonin and histamine assays; and the rest was used immediately for β-hexosaminidase assay.
(§2) β-hexosaminidase activity and TNF protein level were measured as commonly used in the art. To quantify histamine with an Enzyme Immunoassay (EIA) kit (EA213/96; Eagle Biosciences), the supernatant and cell lysates were diluted 100-fold in RPMI. Fifty μl of the diluted samples were then subject to acylation reaction and ELISA by following the manufacturer's instructions. To measure the level of serotonin, the supernatant and cell lysates were diluted 1:625 fold with standard buffer (EA630/96; Eagle Biosciences), 20 μl of which were subject to acylation and subsequent ELISA according to the manufacturer's instructions.
RBL-2H3 cells and derivatives growing in 6-well plates were sensitized for 3 h with 0.5 μg/mL mouse anti-TNP ([…]) IgE (BD Pharmingen) and stimulated with 25 ng/mL of TNP(26)-BSA (Santa Cruz). β-hexosaminidase activities and TNF levels in the supernatant and the cell lysates were quantified as previously described. […]. Reverse transcription and PCRs RBL-2H3 cells (˜40% confluent) cultured in a 24-well plate were treated with 250 μL of 0.25% Trypsin-EDTA (Gibco) that was subsequently neutralized with 750 μL of complete medium. About […] were collected for RT-qPCR (quantitative PCR) using TaqMan Gene Expression Cells-to-CT Kit (ThermoFisher Scientific) according to the manufacturer's instructions. Fluorescently labeled, target-specific probes ((3-actin: Rn00667869_ml; TNFR1: Rn01492348_ml; and TNFR2: Rn00709830_ml) were purchased from Thermofisher Scientific. The Cq values of TNFRs were standardized against that of β-actin utilizing the Bio-Rad CFX Maestro software and then the relative levels of mRNA expression were determined. For electrophoresis, TNFR1 was amplified from cDNA (prepared with the same TaqMan Gene Expression Cells-to-CT Kit described earlier) using […]-3′ (SEQ ID NO: 11) and 5′-[…]-3′ (SEQ ID NO: 12) as forward and reverse primers, whereas TNFR2 was amplified using 5′-[…]-3′ (SEQ ID NO: 13) and 5′-[…]-3′ (SEQ ID NO: 14) as forward and reverse primers. PCR was conducted in a 20 μL mixture containing 1× One Taq Master Mix (NEB) and 200 nM of primers. Where specified, 1 μL of rat universal cDNA (BioChain) was used as positive control.

[2] = system: RBL-2H3 cells; experiment: TNF secretion assay (ELISA), IgE/TNP-BSA activated mast cells; assay type: cell-based, rat; details: for TNF secretion (% of total TNF in the supernatant), normalized against DMSO: inhibitor added to sensitized RBL-2H3 cells 30 min before TNP-BSA, FIG. 19
Procedure: as §1, §2
(§3) The absolute value for the exocytosis of each mediator (V) was expressed as the percentage of the signal released into the supernatant (MS) relative to the total signal in the supernatant and in the lysate [V=MS/(MS+ML)%]. The value for IgE/allergen-dependent exocytosis was calculated by subtracting the value of the activated samples with the value of the resting samples (VE=VA−VR).
(§4) RBL-2H3 cells and derivatives growing in 6-well plates were sensitized for 3 h with 0.5 μg/mL mouse anti-TNP ([…]) IgE (BD Pharmingen) and stimulated with 25 ng/mL of TNP(26)-BSA (Santa Cruz). β-hexosaminidase activities and TNF levels in the supernatant and the cell lysates were quantified as previously described. […]. Reverse transcription and PCRs RBL-2H3 cells (˜40% confluent) cultured in a 24-well plate were treated with 250 μL of 0.25% Trypsin-EDTA (Gibco) that was subsequently neutralized with 750 μL of complete medium. About […] were collected for RT-qPCR (quantitative PCR) using TaqMan Gene Expression Cells-to-CT Kit (ThermoFisher Scientific) according to the manufacturer's instructions. […]

[3] = system: RBL-2H3 cells; experiment: β-hexosaminidase secretion assay, IgE/TNP-BSA activated mast cells; assay type: cell-based, rat; details: for β-hexosaminidase secretion (% of total activity in the supernatant), normalized against DMSO: inhibitor added to sensitized RBL-2H3 cells 30 min before TNP-BSA, FIG. 19
Procedure: as §1, §2, §3, §4

[4] = system: activated mast cells; details: reference [31]; cited from earlier work
[5] = system: activated mast cells; details: reference [31]; cited from earlier work; remark: listed apart in the source
[6] = inhibitor added to sensitized RBL-2H3 cells 30 min before TNP-BSA

Molecule	total TNF level, normalized against DMSO [1, 6]	TNF secretion (% of total TNF in the supernatant), normalized against DMSO [2]	β-hexosaminidase secretion (% of total activity in the supernatant), normalized against DMSO [3]	other results
CCOc1cc(C(=O)N2CCC(N3CCN(C)CC3)CC2)ccc1Nc1ncc2c(n1)N(S(C)(=O)=O)c1ccccc1C(=O)N2C [AX-15836]	–	–	–	reduction in total TNF level ([1]; inhibitor added to sensitized RBL-2H3 cells 30 min before TNP-BSA, statistically significant, FIG. 19B): 10%
Cc1ccc(-n2nc(C(C)(C)C)cc2NC(=O)Nc2ccc(OCCN3CCOCC3)c3ccccc23)cc1 [Doramapimod/BIRB 796, Doramapimod]	did not seem to affect exocytosis or significantly reduce TNF proliferation	did not seem to affect exocytosis	did not seem to affect exocytosis	–
Cc1cc(NC(=O)c2cccc(NC(=O)/C=C/CN(C)C)c2)ccc1Nc1nccc(-c2cccnc2)n1 [JNK-IN-8]	diminished TNF level drastically	without impacting	without impacting	–
CC#CCOc1ccc(S(=O)(=O)CC(c2ccc(CNS(C)(=O)=O)cc2)N(O)C=O)cc1 (centres unmarked) [KP-457]	–	–	–	overall level of TNF (total TNF protein) ([1]; allergen-triggered RBL-2H3 cells, inhibitor added along with TNP-BSA, FIG. 18C): inhibited the overall level of TNF; also recorded: TNF production is diminished; amount of sTNF protein released into the supernatant ([2]; sensitized RBL-2H3 cells, inhibitor added along with TNP-BSA, concentrations between 0.3 M and 10 μM, 1 hour, FIG. 18B): significantly reduced; exocytosis of β-hexosaminidase ([3]; sensitized RBL-2H3 cells, inhibitor added along with TNP-BSA, concentrations between 0.3 M and 10 μM, 1 hour, FIG. 18A): did not seem to affect
Cn1nccc1Nc1nccc(-c2ccn([C@H](CO)c3ccc(Cl)c(F)c3)c(=O)c2)n1 [Ravoxertinib/GDC-0994, Ravoxertinib]	inhibited	inhibited	inhibited	–
CN(C)CCC=C1c2ccccc2CCc2ccccc21 [amitriptyline]	–	–	–	serotonin release [4]: without any influence; histamine release [5]: specifically inhibit
B1	–	–	–	overall level of TNF (total TNF protein) ([1]; sensitized RBL-2H3 cells incubated with sTNFR1 along with TNP-BSA, FIG. 17A): inhibited the overall level of TNF in a concentration dependent fashion; overall level of TNF (total TNF protein) ([1]; sensitized RBL-2H3 cells incubated with sTNFR1 along with TNP-BSA, FIG. 17A, listed as soluble TNFR1): inhibits antigen-elicited TNF production in a dosage-dependent fashion
